Where a name gives a salt, the structure may show the parent alone.
molecular target: Rho-associated protein kinase 2 (Homo sapiens, UniProt O75116); experiment: human Rho kinase 2 inhibition – biochemical, Kinase-Glo luminescence, S6 peptide, 1536-well, dose response (AID 644); conditions: not given
Sequence (O75116 whole entry): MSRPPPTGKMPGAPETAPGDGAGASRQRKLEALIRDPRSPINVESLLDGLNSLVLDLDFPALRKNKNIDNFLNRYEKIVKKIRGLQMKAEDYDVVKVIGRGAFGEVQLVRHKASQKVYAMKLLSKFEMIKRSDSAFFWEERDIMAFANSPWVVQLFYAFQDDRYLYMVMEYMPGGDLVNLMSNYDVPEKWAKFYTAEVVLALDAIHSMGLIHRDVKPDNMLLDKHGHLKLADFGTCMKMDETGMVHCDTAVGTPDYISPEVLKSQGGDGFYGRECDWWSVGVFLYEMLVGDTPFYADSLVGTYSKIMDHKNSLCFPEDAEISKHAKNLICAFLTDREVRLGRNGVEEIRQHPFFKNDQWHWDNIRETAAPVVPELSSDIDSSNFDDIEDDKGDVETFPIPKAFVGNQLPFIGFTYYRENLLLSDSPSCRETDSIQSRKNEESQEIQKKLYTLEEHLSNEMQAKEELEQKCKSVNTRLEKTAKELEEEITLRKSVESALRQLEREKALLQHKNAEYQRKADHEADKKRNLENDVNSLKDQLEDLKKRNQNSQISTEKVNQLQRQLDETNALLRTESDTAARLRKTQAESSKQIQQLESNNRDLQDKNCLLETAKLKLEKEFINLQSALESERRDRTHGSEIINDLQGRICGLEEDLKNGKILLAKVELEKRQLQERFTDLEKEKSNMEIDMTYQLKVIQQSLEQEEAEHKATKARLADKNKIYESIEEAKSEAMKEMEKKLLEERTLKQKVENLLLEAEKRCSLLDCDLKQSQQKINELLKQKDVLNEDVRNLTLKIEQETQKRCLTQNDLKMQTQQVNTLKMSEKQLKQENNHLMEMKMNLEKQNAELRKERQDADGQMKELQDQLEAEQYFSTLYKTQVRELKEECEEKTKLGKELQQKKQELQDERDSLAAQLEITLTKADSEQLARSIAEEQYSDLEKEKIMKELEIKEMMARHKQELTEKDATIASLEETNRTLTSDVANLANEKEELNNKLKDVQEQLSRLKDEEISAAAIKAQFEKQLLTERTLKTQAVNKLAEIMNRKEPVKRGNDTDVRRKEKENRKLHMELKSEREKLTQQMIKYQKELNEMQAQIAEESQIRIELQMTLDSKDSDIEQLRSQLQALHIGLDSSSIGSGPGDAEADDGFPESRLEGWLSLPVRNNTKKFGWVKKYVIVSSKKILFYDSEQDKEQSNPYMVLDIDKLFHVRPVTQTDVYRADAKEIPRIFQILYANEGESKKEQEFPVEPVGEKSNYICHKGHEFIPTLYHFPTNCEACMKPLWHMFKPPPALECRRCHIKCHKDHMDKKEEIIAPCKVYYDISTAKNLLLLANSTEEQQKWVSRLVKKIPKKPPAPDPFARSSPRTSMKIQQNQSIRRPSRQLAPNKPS

Compound | IC50 [µM]
O=C(O)c1cc(NCc2ccc3c(c2)OCO3)ccc1N1CCOCC1 [2-morpholino-5-(piperonylamino)benzoic acid] | > 59.6
NC(=O)c1sc2nc3c(c(-c4ccco4)c2c1N)CCC3 [3-amino-4-(2-furyl)-6,7-dihydro-5H-cyclopenta[b]thieno[3,2-e]pyridine-2-carboxamide] | > 59.6
c1ccc(OCCCc2nc(-c3ccncc3)no2)cc1 [4-[5-(3-phenoxypropyl)-1,2,4-oxadiazol-3-yl]pyridine] | > 59.6
Cc1ccccc1NC(=O)Cn1c(C)nc2ccc(NC(=O)C3CC3)cc2c1=O [Cyclopropanecarboxylic acid [2-methyl-4-oxo-3-(o-tolylcarbamoyl-methyl)-3,4-dihydro-quinazolin-6-yl]-amide] | > 59.6
CC(=O)n1cc(-c2ccncc2)c2ccccc21 [1-(3-pyridin-4-yl-1-indolyl)ethanone;hydrochloride] | 8.16
O=C(Nc1nc(-c2ccncc2)cs1)C1COc2ccccc2O1 (configuration not stated) | < 0.00303
O=NCc1c[nH]c2ccccc12 [MLS000104363] | 4.81
Cc1cc(NC(=O)CSc2nc(-c3ccccc3)cs2)no1 [MLS000066259] | > 59.6
C[C@H]1CNCCN1S(=O)(=O)c1cccc2cnccc12 | 0.1
COc1cc(C=Nn2nnnc2N)ccc1OCc1ccc(F)cc1 [1-[[4-[(4-fluorophenyl)methoxy]-3-methoxy-phenyl]methylideneamino]-1,2,3,4-tetrazol-5-amine] | 17.5
CC(C)C(NC(=O)C1CCCCC1)C(=O)Nc1ccncc1 (configuration not stated) [MLS000090506] | 2.3
Cc1cc(Cl)ccc1OCc1nnc(-c2ccc(O)cc2)[nH]1 [MLS000097369] | > 19.9
CCN(CC)CCNC(=O)CCCCn1c(=S)[nH]c2c([nH]c3ccc(OC)cc32)c1=O [N-[2-(diethylamino)ethyl]-5-(8-methoxy-4-oxo-2-thioxo-1,2,4,5-tetrahydro-3H-pyrimido[5,4-b]indol-3-yl)pentanamide] | > 19.9
Cc1[nH]nc2c1C(c1ccc(-c3ccccc3C#N)o1)C(C#N)C(=N)O2 (configuration not stated) | > 19.9
c1cn(CCCNc2ncnc3nc[nH]c23)cn1 [N-[3-(1-imidazolyl)propyl]-7H-purin-6-amine] | 6.18
Cc1cc(C(=O)CN2C(=O)NC3(CCCCC3)C2=O)c(C)n1Cc1ccc2c(c1)OCO2 [3-[2-(2,5-dimethyl-1-piperonyl-pyrrol-3-yl)-2-keto-ethyl]-1,3-diazaspiro[4.5]decane-2,4-quinone] | > 59.6
CC(C)(C)C(=O)c1sc(Nc2ccccc2)nc1N [1-(4-amino-2-anilino-1,3-thiazol-5-yl)-2,2-dimethyl-1-propanone] | > 59.6
CCN1C(=O)N(CC)C(O)(c2ccccc2)C1(O)c1ccccc1 (configuration not stated) [1,3-diethyl-4,5-bis(oxidanyl)-4,5-diphenyl-imidazolidin-2-one] | > 59.6

The remaining lines, values ahead:

IC50 [µM] | Compound
> 59.6 | Cc1cc(N2CCOCC2)c2c(N)c(C)cc(C)c2n1 [(2,6,8-trimethyl-4-morpholino-5-quinolyl)amine]
0.8 | c1ccc2c(-c3ccncc3)c[nH]c2c1
5.72 | CCc1cc2c(O)ncnc2s1 [MLS000029626]
> 19.9 | Fc1ccccc1Cn1nnc2c(-n3ccnc3)ncnc21 [3-(2-Fluoro-benzyl)-7-imidazol-1-yl-3H-[1,2,3]triazolo[4,5-d]pyrimidine]
7.91 | CN(CCO)c1ncnc2nc[nH]c12 [MLS000101269]
> 19.9 | Nc1ccc2cn[nH]c2c1
> 59.6 | Cc1onc(-c2ccccc2)c1C(=O)N1CCN(C/C=C/c2ccccc2)CC1 [(5-methyl-3-phenyl-1,2-oxazol-4-yl)-[4-[(E)-3-phenylprop-2-enyl]piperazin-1-yl]methanone;hydrochloride]
> 59.6 | CC(C)CCN1CC(C(=O)N2CCN(c3ccc(F)cc3)CC2)CC1=O (configuration not stated) [4-[4-(4-fluorophenyl)piperazin-1-yl]carbonyl-1-(3-methylbutyl)pyrrolidin-2-one]
> 19.9 | C1=C(c2ccccc2)CCN(c2[nH]cnc3ncnc2-3)C1 [SMR000017661]
> 19.9 | CCOC(=O)C1=C(CSc2nc(-c3ccncc3)ccc2C#N)OC(=N)C(C#N)C1c1cccnc1 (configuration not stated) [6-amino-5-cyano-2-[[(3-cyano-6-pyridin-4-yl-2-pyridinyl)thio]methyl]-4-(3-pyridinyl)-4H-pyran-3-carboxylic acid ethyl ester]
> 59.6 | N#Cc1c(N=Cc2cccs2)sc2c1CCCCC2 [2-(2-thenylideneamino)-5,6,7,8-tetrahydro-4H-cyclohepta[b]thiophene-3-carbonitrile]
> 19.9 | COC(=O)c1cccc2c1-c1ccccc1C2N=O (configuration not stated) [(9Z)-9-hydroximinofluorene-4-carboxylic acid methyl ester]
> 59.6 | CC(=O)c1ccc(OCC(O)COc2ccc(C(C)=O)cc2)cc1 [1-[4-[3-(4-acetylphenoxy)-2-hydroxy-propoxy]phenyl]ethanone]

same assay, conditions: inactive by the depositor's call

Compound | IC50 [µM]
CCN1CCN(Cc2nnnn2C(C)(C)C)CC1 [1-(1-tert-Butyl-1H-tetrazol-5-ylmethyl)-4-ethyl-piperazine] | 17.4
CN(C)c1ccc(-c2ccncc2)cc1 [MLS000105960] | 31.8
Cc1ccc2c(c1)c1c3n2CCN(C(=O)Cn2c(-c4ccccc4)noc2=O)C3CCC1 (configuration not stated) [4-[2-(8-Methyl-1,2,3a,4,5,6-hexahydro-pyrazino[3,2,1-jk]carbazol-3-yl)-2-oxo-ethyl]-3-phenyl-4H-[1,2,4]oxadiazol-5-one] | 18.8
c1nc(NC2CCCCC2)c2[nH]cnc2n1 [N-cyclohexyl-7H-purin-6-amine] | 15.3
CN1C(=O)CSc2ccc(NC(=O)NCc3cccnc3)cc21 [1-(3-keto-4-methyl-1,4-benzothiazin-6-yl)-3-(3-pyridylmethyl)urea] | 10.1
NC(=O)c1c(-c2cccs2)csc1N [2-amino-4-(2-thienyl)thiophene-3-carboxamide] | 19.5

Other lines, results leading:

IC50 [µM] | Compound
30.1 | Nc1cccc2cnccc12 [isoquinolin-5-amine]
20.5 | Nc1ncnc2c1cnn2-c1ccccc1 [1-Phenyl-1H-pyrazolo[3,4-d]pyrimidin-4-ylamine]
11 | CCC(=O)Nc1ccc(C(=O)Cn2nc(C(=O)O)c3ccccc3c2=O)cc1 [4-keto-3-[2-keto-2-(4-propionamidophenyl)ethyl]phthalazine-1-carboxylic acid]
445 | CCOC1(OCC)N=C(N)C2(C#N)C(c3ccc(NC(C)=O)cc3)C12C#N (configuration not stated) [MLS000085499]
20.5 | N#Cc1cc2c(nc1SCc1ccncc1)CCC2 [2-(4-pyridylmethylthio)-1-pyrindan-3-carbonitrile]
12 | Cc1c(C)n(C)c2ccc(C(=O)NCc3cccs3)cc12 [1,2,3-trimethyl-N-(2-thenyl)indole-5-carboxamide]
143 | NC(=O)c1sc2nc(N3CCCCC3)c3c(c2c1N)CCCC3 [1-amino-5-(1-piperidinyl)-6,7,8,9-tetrahydrothieno[2,3-c]isoquinoline-2-carboxamide]
12.3 | CC(=O)c1cc(C#N)c(SCc2ccncc2)nc1C [5-acetyl-6-methyl-2-(4-pyridylmethylthio)nicotinonitrile]
20.6 | Cc1ccc(S(=O)(=O)NCCCOC(=O)Nc2ccncc2)cc1 [3-[(4-methylphenyl)sulfonylamino]propyl N-pyridin-4-ylcarbamate]
86.7 | Cc1c(C(=O)N2CCCCC2)sc(N)c1C#N [2-amino-4-methyl-5-(piperidine-1-carbonyl)thiophene-3-carbonitrile]
